# In ChEMBL document CHEMBL1201862, “PubChem BioAssay data set” (2004):
#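 Five compound concentrations were applied to cells in 96-well plates for 48 hours; endpoints were derived by simple linear interpolation of the resulting dose-response curve. Here, GI50 denotes the concentration required for 50% inhibition of growth.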 Calls of active or inactive are those of the source. No stated cut-off is given here; in the data, active = GI50 up to about 1.1 µM and inactive = higher.
# Experiments:
# Experiment in all cases: NCI anticancer screen, dose series, 48 h
# [1] = tested on: 786-0
# [2] = tested on: A498
# [3] = tested on: A549
# [4] = tested on: COLO 205
# [5] = tested on: HCT-116
# [6] = tested on: HCT-15
# [7] = tested on: HT-29
# [8] = tested on: LOX IMVI
# [9] = tested on: MDA-MB-231
# [10] = tested on: MDA-MB-435
# [11] = tested on: MDA-N
# [12] = tested on: NCI-H226
# [13] = tested on: NCI-H23
# [14] = tested on: NCI/ADR-RES
# [15] = tested on: SNB-75
# [16] = tested on: SW-620
# [17] = tested on: U-251
# [18] = tested on: CAKI-1
# [19] = tested on: SK-MEL-2
# [20] = tested on: UO-31
Compound,GI50 [1],GI50 [2],GI50 [3],GI50 [4],GI50 [5],GI50 [6] [µM],GI50 [7],GI50 [8],GI50 [9],GI50 [10],GI50 [11],GI50 [12],GI50 [13],GI50 [14],GI50 [15],GI50 [16],GI50 [17],GI50 [18],GI50 [19],GI50 [20]
COC(=O)c1cc2c(c3c1CC(Cc1ccccc1)C3=O)CCC2 (configuration not stated),71.8 µM (inactive),> 100 µM (inactive),53.6 µM (inactive),> 100 µM (inactive),> 100 µM (inactive),35,74.1 µM (inactive),45.9 µM (inactive),62.2 µM (inactive),52.6 µM (inactive),> 100 µM (inactive),> 100 µM (inactive),64.4 µM (inactive),> 100 µM (inactive),40.9 µM (inactive),> 100 µM (inactive),62.8 µM (inactive),–,–,–
Cc1ccc2[nH]/c(=N/S(=O)(=O)c3cc(C)c(Cl)cc3S)[nH]c2c1,45.9 µM (inactive),52.8 µM (inactive),44.2 µM (inactive),58.5 µM (inactive),46.6 µM (inactive),67.9,> 100 µM (inactive),25.4 µM (inactive),> 100 µM (inactive),28.4 µM (inactive),87.5 µM (inactive),–,66.2 µM (inactive),> 100 µM (inactive),25.1 µM (inactive),43.8 µM (inactive),24 µM (inactive),48.1 µM (inactive),78.3 µM (inactive),57 µM (inactive)
CCOC(=O)/C=C(/C(=O)OCC)n1cc(C)c(=O)n(Cc2cnnn2CCCCOC(C)=O)c1=O,15.6 µM (inactive),–,> 100 µM (inactive),3.54 µM (inactive),15.1 µM (inactive),12.6,19.2 µM (inactive),18.4 µM (inactive),64.6 µM (inactive),21.2 µM (inactive),55.3 µM (inactive),> 100 µM (inactive),28.7 µM (inactive),26.7 µM (inactive),> 100 µM (inactive),5.55 µM (inactive),32.4 µM (inactive),5.79 µM (inactive),86.9 µM (inactive),18.4 µM (inactive)
O=C(O)CSc1cc(-c2ccccc2)nc2ccccc12,47.1 µM (inactive),28.5 µM (inactive),55.5 µM (inactive),–,5.41 µM (inactive),43.6,36.2 µM (inactive),46 µM (inactive),98.9 µM (inactive),13.3 µM (inactive),35.6 µM (inactive),–,44.7 µM (inactive),34.2 µM (inactive),–,44.3 µM (inactive),32.5 µM (inactive),67.5 µM (inactive),26.5 µM (inactive),42.8 µM (inactive)
CN(C)c1ccc(/C=C/c2nc3ccccc3s2)cc1,> 100 µM (inactive),> 100 µM (inactive),> 100 µM (inactive),> 100 µM (inactive),> 100 µM (inactive),> 100,> 100 µM (inactive),> 100 µM (inactive),> 100 µM (inactive),45.1 µM (inactive),> 100 µM (inactive),> 100 µM (inactive),> 100 µM (inactive),> 100 µM (inactive),–,> 100 µM (inactive),> 100 µM (inactive),–,> 100 µM (inactive),8.53 µM (inactive)
C=C(Cl)[C@](Cl)(CBr)CC[C@@H](Br)C(C)(C)Cl [HALOMON],0.147 µM (active),1.97 µM (inactive),2.12 µM (inactive),1.84 µM (inactive),0.392 µM (active),2.01,0.783 µM (active),17.7 µM (inactive),1.16 µM (inactive),1.59 µM (inactive),0.959 µM (active),17 µM (inactive),11.4 µM (inactive),1.69 µM (inactive),0.449 µM (active),2.07 µM (inactive),0.181 µM (active),0.337 µM (active),–,0.959 µM (active)
COc1cc(C(=O)Oc2c(C#N)sc3c2c(=O)n(-c2ccccc2)c(=S)n3-c2ccccc2)cc(OC)c1OC,15.2 µM (inactive),4.1 µM (inactive),21.5 µM (inactive),15.8 µM (inactive),16.3 µM (inactive),18.9,3.4 µM (inactive),19.9 µM (inactive),20.8 µM (inactive),15.1 µM (inactive),20.2 µM (inactive),4.73 µM (inactive),18.1 µM (inactive),16.6 µM (inactive),14.4 µM (inactive),24.2 µM (inactive),12.5 µM (inactive),21.2 µM (inactive),–,–
NC(=O)C(=O)C(c1ccccc1)S(=O)(=O)Cc1ccccc1 (configuration not stated),> 100 µM (inactive),–,> 100 µM (inactive),> 100 µM (inactive),> 100 µM (inactive),> 100,> 100 µM (inactive),> 100 µM (inactive),> 100 µM (inactive),> 100 µM (inactive),> 100 µM (inactive),> 100 µM (inactive),> 100 µM (inactive),> 100 µM (inactive),> 82 µM (inactive),> 100 µM (inactive),> 100 µM (inactive),> 100 µM (inactive),> 100 µM (inactive),> 100 µM (inactive)
C[n+]1c2ccccc2c(C(=O)Nc2ccc(S(=O)(=O)Nc3ccnn3-c3ccccc3)cc2)c2ccccc21,> 100 µM (inactive),–,> 100 µM (inactive),> 100 µM (inactive),> 100 µM (inactive),> 100,> 100 µM (inactive),> 100 µM (inactive),> 100 µM (inactive),> 100 µM (inactive),> 100 µM (inactive),> 100 µM (inactive),> 100 µM (inactive),20.7 µM (inactive),> 100 µM (inactive),> 100 µM (inactive),> 100 µM (inactive),> 100 µM (inactive),> 100 µM (inactive),> 100 µM (inactive)
CC[C@@H]1/C=C/C=C/C[C@H](C)[C@@H](O)[C@](C)(O)C(=O)[C@H](C)[C@@H](O)[C@H](C)C(=O)[C@H](C)[C@@H](O)[C@H](C)/C=C/C(=O)O[C@H]2[C@@H](C)[C@@H](CC1)O[C@]1(O[C@H](CC(C)O)[C@H](C)CC1=O)[C@@H]2C (some centres not stated),4.79 µM (inactive),0.108 µM (active),< 0.0025 µM (active),< 0.0025 µM (active),2.62 µM (inactive),3.28,2.92 µM (inactive),3.99 µM (inactive),3.72 µM (inactive),3.26 µM (inactive),3.35 µM (inactive),–,< 0.0025 µM (active),0.598 µM (active),0.871 µM (active),5.57 µM (inactive),< 0.0025 µM (active),3.96 µM (inactive),3.89 µM (inactive),2.81 µM (inactive)
COc1cccc(O)c1-c1cc(=O)c2c(O)c(OC)c(OC)c(OC)c2o1 [SKULLCAPFLAVONE II],42.6 µM (inactive),–,29 µM (inactive),16.5 µM (inactive),32.1 µM (inactive),18.5,6.5 µM (inactive),30.2 µM (inactive),41 µM (inactive),10.3 µM (inactive),12.9 µM (inactive),47.2 µM (inactive),24.9 µM (inactive),21.8 µM (inactive),23 µM (inactive),31.8 µM (inactive),31.6 µM (inactive),22.8 µM (inactive),20.9 µM (inactive),25.2 µM (inactive)
CS(=O)(=O)c1nc(-c2cc3c(c(S(C)(=O)=O)n2)CCC3)cc2c1CCCC2,35.3 µM (inactive),–,> 100 µM (inactive),> 100 µM (inactive),> 100 µM (inactive),> 100,> 100 µM (inactive),18.7 µM (inactive),38.9 µM (inactive),> 100 µM (inactive),> 100 µM (inactive),> 100 µM (inactive),58.3 µM (inactive),48.6 µM (inactive),8.63 µM (inactive),> 100 µM (inactive),27.1 µM (inactive),17 µM (inactive),24.6 µM (inactive),7.71 µM (inactive)
Cc1cccc(N2CCN(S(=O)(=O)c3ccc(Cl)cc3)C2=N)c1C,> 100 µM (inactive),> 100 µM (inactive),> 100 µM (inactive),> 100 µM (inactive),> 100 µM (inactive),–,> 100 µM (inactive),–,> 100 µM (inactive),> 100 µM (inactive),> 100 µM (inactive),> 100 µM (inactive),96.4 µM (inactive),> 100 µM (inactive),> 100 µM (inactive),> 100 µM (inactive),> 100 µM (inactive),> 100 µM (inactive),–,47.9 µM (inactive)
O=c1c2cc(-c3ccccc3)cnc2sn1-c1ccc(Oc2ccccc2)cc1,17.3 µM (inactive),25.3 µM (inactive),19.5 µM (inactive),> 100 µM (inactive),51.9 µM (inactive),56.5,23.4 µM (inactive),–,14.5 µM (inactive),41.1 µM (inactive),28.4 µM (inactive),87.5 µM (inactive),61 µM (inactive),27 µM (inactive),32 µM (inactive),37.8 µM (inactive),23.6 µM (inactive),61.9 µM (inactive),> 100 µM (inactive),47 µM (inactive)
CN1C(=O)c2ccccc2NC(=O)C12O[C@@H]2c1cccc(O)c1 (some centres not stated),> 100 µM (inactive),> 100 µM (inactive),> 100 µM (inactive),> 100 µM (inactive),> 100 µM (inactive),> 100,> 100 µM (inactive),> 100 µM (inactive),> 100 µM (inactive),> 100 µM (inactive),> 100 µM (inactive),–,> 100 µM (inactive),> 100 µM (inactive),> 100 µM (inactive),> 100 µM (inactive),> 100 µM (inactive),> 100 µM (inactive),> 100 µM (inactive),> 100 µM (inactive)
